{"source": "paper PMC5448077", "about": "“Development of an orally available inhibitor of CLK1 for skipping a mutated dystrophin exon in Duchenne muscular dystrophy” (Scientific Reports, 2017)", "experiment_in_all_cases": "biochemical", "key": {"[1]": {"molecular_target": "T1, ARG (Homo sapiens, UniProt P42684)", "T1 construct": "gene ABL2", "T1 sequence (P42684 whole entry)": "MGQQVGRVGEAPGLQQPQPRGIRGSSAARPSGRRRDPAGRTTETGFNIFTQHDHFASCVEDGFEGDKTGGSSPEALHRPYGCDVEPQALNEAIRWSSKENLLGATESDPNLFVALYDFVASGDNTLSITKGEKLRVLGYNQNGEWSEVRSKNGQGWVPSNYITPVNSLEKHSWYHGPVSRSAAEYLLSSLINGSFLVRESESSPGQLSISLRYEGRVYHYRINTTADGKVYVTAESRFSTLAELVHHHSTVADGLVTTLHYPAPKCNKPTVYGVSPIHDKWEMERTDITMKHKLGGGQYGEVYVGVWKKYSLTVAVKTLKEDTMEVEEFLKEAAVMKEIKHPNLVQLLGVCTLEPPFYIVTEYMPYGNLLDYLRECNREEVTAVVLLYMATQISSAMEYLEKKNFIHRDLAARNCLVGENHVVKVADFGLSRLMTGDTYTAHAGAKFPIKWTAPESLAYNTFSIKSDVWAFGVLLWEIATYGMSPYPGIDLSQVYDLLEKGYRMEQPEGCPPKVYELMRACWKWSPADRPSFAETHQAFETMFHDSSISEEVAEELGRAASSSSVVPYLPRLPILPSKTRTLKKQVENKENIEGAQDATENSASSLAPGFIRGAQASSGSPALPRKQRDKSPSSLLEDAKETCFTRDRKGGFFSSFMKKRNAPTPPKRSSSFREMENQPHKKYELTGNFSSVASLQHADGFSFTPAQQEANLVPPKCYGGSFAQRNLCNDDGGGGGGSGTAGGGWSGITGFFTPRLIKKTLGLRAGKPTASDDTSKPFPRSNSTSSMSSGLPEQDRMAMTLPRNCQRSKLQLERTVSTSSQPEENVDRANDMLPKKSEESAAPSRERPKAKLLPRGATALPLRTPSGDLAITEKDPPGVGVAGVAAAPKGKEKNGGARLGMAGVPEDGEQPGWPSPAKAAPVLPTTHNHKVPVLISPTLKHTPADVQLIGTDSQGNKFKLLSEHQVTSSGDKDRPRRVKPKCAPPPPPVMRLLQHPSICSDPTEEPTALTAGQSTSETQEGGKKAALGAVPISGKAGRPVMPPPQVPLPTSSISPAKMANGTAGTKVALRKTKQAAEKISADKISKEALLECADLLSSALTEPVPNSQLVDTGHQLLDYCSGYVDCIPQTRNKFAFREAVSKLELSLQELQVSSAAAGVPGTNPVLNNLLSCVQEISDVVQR", "procedure,_shortened": "(§1)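 Human kinases phosphorylating kinase-specific synthetic peptides, assayed by mobility shift (MSA) or IMAP fluorescence polarization, in 20 mM HEPES pH 7.5, 0.01% Triton X-100, 2 mM DTT with substrate/ATP-metal. Reactions ran 1 or 5 h at room temperature; activity = P/(P + S) from product and substrate peak heights.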"}, "[2]": {"molecular_target": "BLK (Homo sapiens, UniProt P51451)", "procedure,_shortened": "as §1"}, "[3]": {"molecular_target": "EEF2K (Homo sapiens, UniProt O00418)", "procedure,_shortened": "as §1"}, "[4]": {"molecular_target": "FGFR2 (Homo sapiens, UniProt P21802)", "sequence (P21802 whole entry)": "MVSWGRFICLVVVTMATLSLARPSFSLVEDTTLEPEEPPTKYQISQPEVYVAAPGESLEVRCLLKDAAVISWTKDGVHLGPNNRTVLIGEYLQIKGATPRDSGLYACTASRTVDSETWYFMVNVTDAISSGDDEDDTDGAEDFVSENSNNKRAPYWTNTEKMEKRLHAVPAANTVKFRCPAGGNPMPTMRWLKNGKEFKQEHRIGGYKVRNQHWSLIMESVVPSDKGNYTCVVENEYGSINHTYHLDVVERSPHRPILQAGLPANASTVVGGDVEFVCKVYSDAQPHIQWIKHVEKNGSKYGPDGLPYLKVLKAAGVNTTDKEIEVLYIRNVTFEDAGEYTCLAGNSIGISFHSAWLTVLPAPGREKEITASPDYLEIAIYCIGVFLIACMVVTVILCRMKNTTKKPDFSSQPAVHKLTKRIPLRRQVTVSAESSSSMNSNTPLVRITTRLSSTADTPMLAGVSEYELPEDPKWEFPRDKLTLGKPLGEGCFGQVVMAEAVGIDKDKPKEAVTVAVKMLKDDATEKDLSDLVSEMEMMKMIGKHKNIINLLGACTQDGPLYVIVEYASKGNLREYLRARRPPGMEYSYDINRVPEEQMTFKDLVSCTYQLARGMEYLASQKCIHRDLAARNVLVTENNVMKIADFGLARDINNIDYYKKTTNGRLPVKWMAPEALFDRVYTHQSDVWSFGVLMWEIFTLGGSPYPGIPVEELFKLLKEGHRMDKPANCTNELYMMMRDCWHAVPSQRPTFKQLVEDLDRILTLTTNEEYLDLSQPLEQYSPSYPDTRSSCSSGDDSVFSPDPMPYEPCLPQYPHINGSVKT", "procedure,_shortened": "as §1"}, "[5]": {"molecular_target": "Haspin (Homo sapiens, UniProt Q8TF76)", "sequence (Q8TF76 whole entry)": "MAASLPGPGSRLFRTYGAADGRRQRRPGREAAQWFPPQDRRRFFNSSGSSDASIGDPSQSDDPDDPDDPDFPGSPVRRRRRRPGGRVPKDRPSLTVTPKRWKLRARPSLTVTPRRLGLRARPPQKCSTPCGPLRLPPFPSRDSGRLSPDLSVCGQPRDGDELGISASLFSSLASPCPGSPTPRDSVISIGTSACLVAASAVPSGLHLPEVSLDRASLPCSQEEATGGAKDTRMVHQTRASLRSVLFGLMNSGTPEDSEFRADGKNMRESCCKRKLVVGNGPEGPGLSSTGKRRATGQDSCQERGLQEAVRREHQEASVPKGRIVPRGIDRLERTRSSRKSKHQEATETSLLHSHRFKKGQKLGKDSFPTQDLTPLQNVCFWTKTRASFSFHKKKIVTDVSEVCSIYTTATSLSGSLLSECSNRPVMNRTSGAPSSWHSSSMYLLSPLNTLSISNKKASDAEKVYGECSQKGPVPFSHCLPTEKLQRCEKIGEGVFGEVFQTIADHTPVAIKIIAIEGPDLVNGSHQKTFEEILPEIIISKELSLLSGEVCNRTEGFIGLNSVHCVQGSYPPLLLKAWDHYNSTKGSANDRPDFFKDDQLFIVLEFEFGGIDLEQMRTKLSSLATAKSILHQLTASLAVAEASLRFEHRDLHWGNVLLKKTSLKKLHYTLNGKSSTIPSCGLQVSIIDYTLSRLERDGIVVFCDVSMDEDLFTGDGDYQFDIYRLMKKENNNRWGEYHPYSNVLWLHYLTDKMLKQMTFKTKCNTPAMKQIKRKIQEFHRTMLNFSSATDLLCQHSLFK", "procedure,_shortened": "as §1"}, "[6]": {"molecular_target": "T2, JNK2 (Homo sapiens, UniProt P45984)", "T2 construct": "gene MAPK9", "T2 sequence (P45984 whole entry)": "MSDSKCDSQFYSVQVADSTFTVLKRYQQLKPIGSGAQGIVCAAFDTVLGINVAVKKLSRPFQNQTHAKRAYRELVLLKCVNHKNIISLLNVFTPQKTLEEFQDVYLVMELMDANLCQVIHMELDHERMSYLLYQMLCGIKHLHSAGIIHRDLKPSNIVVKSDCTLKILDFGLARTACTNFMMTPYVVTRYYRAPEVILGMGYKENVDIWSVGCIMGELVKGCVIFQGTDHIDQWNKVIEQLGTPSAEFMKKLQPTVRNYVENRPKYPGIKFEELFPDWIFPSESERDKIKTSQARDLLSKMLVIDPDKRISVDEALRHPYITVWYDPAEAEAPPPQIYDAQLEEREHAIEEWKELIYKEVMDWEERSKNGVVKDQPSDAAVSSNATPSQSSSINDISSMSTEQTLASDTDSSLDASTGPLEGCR", "procedure,_shortened": "as §1"}, "[7]": {"molecular_target": "T3, MRCKβ (Homo sapiens, UniProt Q9Y5S2)", "T3 construct": "gene CDC42BPB", "T3 sequence (Q9Y5S2 whole entry)": "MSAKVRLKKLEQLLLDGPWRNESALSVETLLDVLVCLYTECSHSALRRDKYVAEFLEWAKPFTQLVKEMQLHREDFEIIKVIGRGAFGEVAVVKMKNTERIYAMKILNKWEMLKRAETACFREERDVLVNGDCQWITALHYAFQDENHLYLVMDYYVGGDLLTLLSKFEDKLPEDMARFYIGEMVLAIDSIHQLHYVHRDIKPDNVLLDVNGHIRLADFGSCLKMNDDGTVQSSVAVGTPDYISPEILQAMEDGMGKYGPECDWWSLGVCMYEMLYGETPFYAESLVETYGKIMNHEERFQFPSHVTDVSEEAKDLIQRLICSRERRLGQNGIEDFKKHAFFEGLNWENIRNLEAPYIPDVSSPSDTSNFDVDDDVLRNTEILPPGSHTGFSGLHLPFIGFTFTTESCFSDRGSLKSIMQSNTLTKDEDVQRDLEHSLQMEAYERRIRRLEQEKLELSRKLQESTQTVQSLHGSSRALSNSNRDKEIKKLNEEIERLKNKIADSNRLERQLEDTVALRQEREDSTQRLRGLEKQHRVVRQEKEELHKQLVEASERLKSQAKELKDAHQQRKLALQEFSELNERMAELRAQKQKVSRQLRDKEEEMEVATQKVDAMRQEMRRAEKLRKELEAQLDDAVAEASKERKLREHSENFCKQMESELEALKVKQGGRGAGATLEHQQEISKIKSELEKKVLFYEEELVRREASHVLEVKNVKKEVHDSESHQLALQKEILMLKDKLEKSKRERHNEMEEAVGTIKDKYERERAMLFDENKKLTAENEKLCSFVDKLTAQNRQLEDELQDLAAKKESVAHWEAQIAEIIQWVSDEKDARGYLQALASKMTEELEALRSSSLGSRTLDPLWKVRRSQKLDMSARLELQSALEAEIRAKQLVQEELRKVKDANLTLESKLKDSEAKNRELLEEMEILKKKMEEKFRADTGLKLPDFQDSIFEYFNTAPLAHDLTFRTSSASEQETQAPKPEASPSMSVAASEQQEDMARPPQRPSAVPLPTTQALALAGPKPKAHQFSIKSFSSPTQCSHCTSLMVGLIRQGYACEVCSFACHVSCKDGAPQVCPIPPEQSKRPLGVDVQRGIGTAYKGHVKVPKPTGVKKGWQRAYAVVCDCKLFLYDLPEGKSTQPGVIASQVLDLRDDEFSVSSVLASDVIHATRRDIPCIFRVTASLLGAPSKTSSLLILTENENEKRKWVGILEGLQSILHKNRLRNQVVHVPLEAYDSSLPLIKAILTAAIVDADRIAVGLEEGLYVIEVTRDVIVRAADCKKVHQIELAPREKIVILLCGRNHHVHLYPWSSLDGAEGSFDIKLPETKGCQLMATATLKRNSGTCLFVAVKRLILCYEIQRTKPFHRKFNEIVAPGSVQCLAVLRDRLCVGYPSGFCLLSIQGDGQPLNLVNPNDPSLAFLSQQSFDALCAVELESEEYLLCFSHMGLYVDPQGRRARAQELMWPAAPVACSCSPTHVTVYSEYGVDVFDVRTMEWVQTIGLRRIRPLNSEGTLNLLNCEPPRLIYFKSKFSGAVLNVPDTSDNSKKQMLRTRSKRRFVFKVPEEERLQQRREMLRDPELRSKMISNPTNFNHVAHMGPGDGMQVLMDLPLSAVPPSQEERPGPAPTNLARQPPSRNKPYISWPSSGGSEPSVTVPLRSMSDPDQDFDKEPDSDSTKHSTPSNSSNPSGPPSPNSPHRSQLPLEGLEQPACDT", "procedure,_shortened": "as §1"}, "[8]": {"molecular_target": "NuaK1 (Homo sapiens, UniProt O60285)", "procedure,_shortened": "as §1"}, "[9]": {"molecular_target": "T4, PDHK2 (Homo sapiens, UniProt Q15119)", "T4 construct": "gene PDK2", "procedure,_shortened": "as §1"}, "[10]": {"molecular_target": "T5, PKACβ (Homo sapiens, UniProt P22694)", "T5 construct": "gene PRKACB", "procedure,_shortened": "as §1"}, "[11]": {"molecular_target": "T6, p38δ (Homo sapiens, UniProt O15264)", "T6 construct": "gene MAPK13", "procedure,_shortened": "as §1"}}}
{"compound": "c1cc(-c2ccc3[nH]ncc3c2)ccn1", "note": "[TG693, 5-(4-pyridinyl)-1H-indazole]", "values": [{"measurement": "inhibition at 1 µM", "setting": "[1]", "result": 4.7, "unit": "%"}, {"measurement": "inhibition at 1 µM", "setting": "[2]", "result": -2.2, "unit": "%"}, {"measurement": "inhibition at 1 µM", "setting": "[3]", "result": -15.2, "unit": "%"}, {"measurement": "inhibition at 1 µM", "setting": "[4]", "result": 1.7, "unit": "%"}, {"measurement": "inhibition at 1 µM", "setting": "[5]", "result": 92.8, "unit": "%"}, {"measurement": "inhibition at 1 µM", "setting": "[6]", "result": -5.9, "unit": "%"}, {"measurement": "inhibition at 1 µM", "setting": "[7]", "result": -7.3, "unit": "%"}, {"measurement": "inhibition at 1 µM", "setting": "[8]", "result": 7.5, "unit": "%"}, {"measurement": "inhibition at 1 µM", "setting": "[9]", "result": -0.8, "unit": "%"}, {"measurement": "inhibition at 1 µM", "setting": "[10]", "result": 3.1, "unit": "%"}, {"measurement": "inhibition at 1 µM", "setting": "[11]", "result": -0.7, "unit": "%"}]}
